Key:
C-peptide antibodies = test: Antibody formation against C-peptide, ELISA; assay type: in vivo, human; conditions: baseline and after 3 and 6 months of C-peptide treatment
Excerpt: C-peptide plasma samples, C-peptide antibodies, and markers for atherosclerosis were processed (centrifuged, etc.) and stored frozen until transport to a central lab. HLA typing samples were shipped to a central lab for processing and storage until analysis. All samples there were labelled uniquely, including information about screening number and sample time.
Samples for the assessment of antibody formation were collected at baseline and at visits 2 and 4. An appropriate enzyme-linked immunoabsorbant assay (ELISA) method was developed and assessments carried out.

[1] = system: type 1 diabetes patients with peripheral neuropathy; test: ECG and vital signs; assay type: in vivo, human; conditions: for BPd (diastolic blood pressure), change from baseline to 6 months treatment (visit 4), Mean ± SD / BPd (diastolic blood pressure), change from baseline to 6 months treatment (visit 4), Median / BPs (systolic blood pressure), change from baseline to 6 months treatment (visit 4), Mean ± SD / BPs (systolic blood pressure), change from baseline to 6 months treatment (visit 4), Median / Heart rate, change from baseline to 6 months treatment (visit 4), Mean ± SD / Heart rate, change from baseline to 6 months treatment (visit 4), Median / QTc-interval Bazett, change from baseline to 6 months treatment (visit 4), Mean ± SD / QTc-interval Bazett, change from baseline to 6 months treatment (visit 4), Median / QTc-interval Fredericia, change from baseline to 6 months treatment (visit 4), Mean ± SD / QTc-interval Fredericia, change from baseline to 6 months treatment (visit 4), Median: PP data set
Experimental: At the final clinical visit (at 6 months from S/B visit), a safety assessment including physical examination, ECG, vital signs, body weight, and sampling for clinical safety laboratory tests were performed. Furthermore, the metabolic control (HbA1c) was assessed, as well as C-peptide antibodies and C-peptide levels in plasma. All efficacy variables including SCV, SNAP, MCV, MDL, CMAP, QST were performed (two examinations within 2-14 days). E/I ratio and neurological status were also assessed. All used and unused clinical trial medication was returned by the patient and drug accountability was performed by study staff. The patient diary was reviewed including recording of concomitant medication, AEs, and drug accountability. FIG. 1 summarizes the study procedures and assessments conducted at each time point.

[2] = system: type 1 diabetes patients with peripheral neuropathy; test: Clinical laboratory evaluation: hematology, clinical chemistries, urinalysis; assay type: in vivo, human; conditions: following the study treatment
Excerpt: Before starting the study, the investigator supplied the Sponsor with a list of the normal laboratory ranges and units of measurement for the laboratory variables to be determined during the study at the site. All abnormal laboratory (those out of the normal range) values required comments on the CRF, regardless of the clinical significance: • Error—Include improper sample preparation, hemolysis, delayed transit to laboratory, etc. • Not relevant—Abnormality that was not alarming. • Patient condition—Abnormality that was a consequence of the patient's disease, age, etc. • Adverse event—Clinically relevant abnormal value that cannot be explained by the above assessment flags. Adverse Event/Serious Adverse Event CRF was filled in.
Descriptive statistics were used for safety variables.

[3] = Bioavailability and expected plasma concentration of subcutaneously administered C-peptide; assay type: in vivo, human; conditions: low dose 500 nmoL/24 h given 4 times daily
Experimental: The dose selection is based on data from previous studies, in which C-peptide has been replaced for 3 months (600 nmoL/24 h) and an effect on albumin excretion and sensory nerve conduction velocity has been observed (Johansson et al., 2000; Ekberg et al., 2003). In order to maintain adequate levels of C-peptide for as many hours of the day as possible, the daily dose was divided into four doses, injected subcutaneously using Disetronic Pen 25, and administered in the morning, at lunch, at dinner, and at bedtime. […] To determine if C-peptide at a higher dose has an optimal effect, a 3 times higher dose (1,500 nmoL/24 h) was also administered.
The low-dose regimen was expected to give a mean physiological plasma concentration of ˜1 nmoL/L during the 24 h period. The high dose regimen was expected to result in concentrations ˜3 times those of the low dose regimen. The actual exposure is described in section above on “C-peptide concentrations”. […] The sampling of C-peptide in plasma at visits 2 and 4 coincided with the clinical visit and the time between the most recent administration of the trial drug and sampling varied between patients. Thereby, the results of C-peptide concentrations in plasma became less suitable for pharmacokinetic evaluations.

[4] = subcutaneously administered; cited from earlier work
[5] = system: type 1 diabetes patients with peripheral neuropathy; test: Adverse events incl. severe hypoglycemic events and hypoglycemic coma; conditions: for AEs of any severity: Tooth ache: Gastrointestinal Disorders
[6] = Low-dose, ITT data set, Infections and infestations
[7] = Low-dose, PP data set, Infections and infestations
[8] = Low-dose, PP data set, Injury poisoning, procedural complications
[9] = Low-dose, PP data set, Investigations

For `CC(C)C[C@H](NC(=O)[C@H](C)NC(=O)[C@H](CC(C)C)NC(=O)[C@@H]1CCCN1C(=O)[C@H](CCC(N)=O)NC(=O)[C@H](CC(C)C)NC(=O)[C@H](CO)NC(=O)CNC(=O)[C@H](C)NC(=O)CNC(=O)[C@@H]1CCCN1C(=O)CNC(=O)CNC(=O)CNC(=O)[C@H](CC(C)C)NC(=O)[C@H](CCC(=O)O)NC(=O)[C@@H](NC(=O)[C@H](CCC(N)=O)NC(=O)CNC(=O)[C@@H](NC(=O)[C@H](CCC(N)=O)NC(=O)[C@H](CC(C)C)NC(=O)[C@H](CC(=O)O)NC(=O)[C@H](CCC(=O)O)NC(=O)[C@H](C)NC(=O)[C@@H](N)CCC(=O)O)C(C)C)C(C)C)C(=O)N[C@@H](CCC(=O)O)C(=O)NCC(=O)N[C@@H](CO)C(=O)N[C@@H](CC(C)C)C(=O)N[C@@H](CCC(N)=O)C(=O)O` [C-peptide, Recombinant human C-peptide], the “Antibody reactivity to C-peptide” value (C-peptide antibodies) was “no or very weak reactivity”, the “BPd (diastolic blood pressure), change from baseline to 6 months treatment (visit 4), Mean ± SD” value ([1]; High-dose C-peptide, n = 39) was −2.6 ± 8.0 mm Hg and the “BPd (diastolic blood pressure), change from baseline to 6 months treatment (visit 4), Median” value ([1]; High-dose C-peptide, n = 39) was −1.0 mm Hg. For the same molecule, the “BPs (systolic blood pressure), change from baseline to 6 months treatment (visit 4), Mean ± SD” value ([1]; High-dose C-peptide, n = 39) was −8.8 ± 10.0 mm Hg, the “BPs (systolic blood pressure), change from baseline to 6 months treatment (visit 4), Median” value ([1]; High-dose C-peptide, n = 39) was −8.0 mm Hg and the “Heart rate, change from baseline to 6 months treatment (visit 4), Mean ± SD” value ([1]; High-dose C-peptide, n = 39) was −3.2 ± 10.0 bpm. The “Heart rate, change from baseline to 6 months treatment (visit 4), Median” value ([1]; High-dose C-peptide, n = 39) was −4.0 bpm, the “QTc-interval Bazett, change from baseline to 6 months treatment (visit 4), Mean ± SD” value ([1]; High-dose C-peptide, n = 39) was -4.5 ± 20.3 ms and the “QTc-interval Bazett, change from baseline to 6 months treatment (visit 4), Median” value ([1]; High-dose C-peptide, n = 39) was 0.0 ms. For the same molecule, the “QTc-interval Fredericia, change from baseline to 6 months treatment (visit 4), Mean ± SD” value ([1]; High-dose C-peptide, n = 39) was -0.5 ± 16.2 ms, the “QTc-interval Fredericia, change from baseline to 6 months treatment (visit 4), Median” value ([1]; High-dose C-peptide, n = 39) was 0.0 ms and the “Decrease in systolic blood pressure compared to the low-dose C-peptide group” value ([1]; High-dose C-peptide, p<0.004, not different from placebo) was “significantly greater decrease”. For the same molecule, the “BPd (diastolic blood pressure), change from baseline to 6 months treatment (visit 4), Mean ± SD” value ([1]; Low-dose C-peptide, n = 53) was −2.7 ± 8.2 mm Hg, the “BPd (diastolic blood pressure), change from baseline to 6 months treatment (visit 4), Median” value ([1]; Low-dose C-peptide, n = 53) was −1.0 mm Hg and the “BPs (systolic blood pressure), change from baseline to 6 months treatment (visit 4), Mean ± SD” value ([1]; Low-dose C-peptide, n = 53) was −2.1 ± 12.8 mm Hg. For the same molecule, the “BPs (systolic blood pressure), change from baseline to 6 months treatment (visit 4), Median” value ([1]; Low-dose C-peptide, n = 53) was −1.0 mm Hg, the “Heart rate, change from baseline to 6 months treatment (visit 4), Mean ± SD” value ([1]; Low-dose C-peptide, n = 53) was −0.9 ± 8.2 bpm and the “Heart rate, change from baseline to 6 months treatment (visit 4), Median” value ([1]; Low-dose C-peptide, n = 53) was −2.0 bpm. For the same molecule, the “QTc-interval Bazett, change from baseline to 6 months treatment (visit 4), Mean ± SD” value ([1]; Low-dose C-peptide, n = 53) was -0.1 ± 17.5 ms, the “QTc-interval Bazett, change from baseline to 6 months treatment (visit 4), Median” value ([1]; Low-dose C-peptide, n = 53) was 0.0 ms and the “QTc-interval Fredericia, change from baseline to 6 months treatment (visit 4), Mean ± SD” value ([1]; Low-dose C-peptide, n = 53) was 0.9 ± 14.1 ms. For the same molecule, the “QTc-interval Fredericia, change from baseline to 6 months treatment (visit 4), Median” value ([1]; Low-dose C-peptide, n = 53) was 1.3 ms, the “Changes in heart rate, blood pressure, and QTc” value ([1]; any of the three treatment groups, 6 months) was “nor were there any significant changes” and the “Abnormalities in ECG” value ([1]; during study medication treatment) was “no clinically significant abnormalities”. For the same molecule, the “Changes in clinical laboratory variables” value [2] was “no significant changes in any of the variables”, the “Expected physiological mean plasma concentration” value [3] was roughly 1 nmoL/L and the Bioavailability [4] was “approximately 80%”. The “AEs of severe intensity (S): Sepsis” value ([5]; High-dose, ITT data set, Infections and infestations) was “S (1)”, the “AEs of any severity: Tooth ache” value ([5]; High-dose, PP data set) was 3 and the “AEs of any severity: Urinary tract infection” value ([5]; High-dose, PP data set, Infections and infestations) was 1. The “AEs of any severity: Skin infection” value ([5]; High-dose, PP data set, Skin and subcutaneous tissue disorders) was 2, the “AEs of moderate intensity (M): Acute HIV infection” value [5, 6] was “M (1)” and the “AEs of moderate intensity (M): Borrelia infection” value [5, 6] was “M (1)”. The “AEs of moderate intensity (M): Herpes zoster” value [5, 6] was “M (1)”, the “AEs of moderate intensity (M): Skin infection” value ([5]; Low-dose, ITT data set, Skin and subcutaneous tissue disorders) was “M (1)” and the “AEs of any severity: Tooth ache” value ([5]; Low-dose, PP data set) was 2. The “AEs of any severity: Acute HIV infection” value [5, 7] was 1, the “AEs of any severity: Borrelia infection” value [5, 7] was 1 and the “AEs of any severity: Herpes simplex” value [5, 7] was 1. The “AEs of any severity: Herpeszoster” value [5, 7] was 1, the “AEs of any severity: Influenza” value [5, 7] was 1 and the “AEs of any severity: Nasopharyngitis” value [5, 7] was 31. The “AEs of any severity: Otitis” value [5, 7] was 1, the “AEs of any severity: Pharyngitis” value [5, 7] was 1 and the “AEs of any severity: Sinusitis” value [5, 7] was 4. For the same molecule, the “AEs of any severity: Skin infection” value [5, 7] was 5, the “AEs of any severity: Tonsilitis” value [5, 7] was 1 and the “AEs of any severity: Upper respiratory tract infection” value [5, 7] was 3. The “AEs of any severity: Urinary tract infection” value [5, 7] was 3, the “AEs of any severity: Joint sprain ankle” value [5, 8] was 1 and the “AEs of any severity: Rib fracture/injury” value [5, 8] was 1. The “AEs of any severity: Skin injury” value [5, 8] was 2, the “AEs of any severity: Elevated serum creatinine” value [5, 9] was 1 and the “AEs of any severity: Hepatic enzyme increase” value [5, 9] was 2. For the same molecule, the “AEs of any severity: Hyperkalaemia” value [5, 9] was 1, the “AEs of any severity: Weight increased” value [5, 9] was 1 and the Deaths ([5]; during the study) was “No deaths”.

— patent publication US8410049B2, “Methods and kits for preventing hypoglycemia” (Cebix, priority 2009, dated 2013)
